In patent US8501746B2, “Organic compounds” (Xenon Pharmaceuticals Inc., priority 2006, dated 2013) one finds melting point data, which are given here for 27 compounds.

The melting point is the temperature, or range, at which the solid turns liquid. In turn, `CCOC(=O)c1sc(-n2ccc(OCC3CC3)cc2=O)nc1C` [Example 15, Ethyl 2-(4-(Cyclopropylmethoxy)-2-oxopyridin-1(2H)-yl)-4-methylthiazole-5-carboxylate] had a melting point of 180 to 183 °C.
`CCOC(=O)c1sc(-n2ccc(OCc3ccc(C(F)(F)F)o3)cc2=O)nc1C` [Example 17] displayed a melting point of 196 to 198 °C.
On to `Cc1nc(-n2ccc(COc3ccccc3)cc2=O)sc1C(=O)NCc1ccccc1` [Example 3.18, N-Benzyl-4-methyl-2-(2-oxo-4-(phenoxymethyl)pyridin-1(2H)-yl)thiazole-5-carboxamide], for which the melting point fell in the range of 175 to 177 °C.
The value for `Cc1nc(-n2ccc(OCc3ccccc3)cc2=O)n(C)c1C(=O)NCc1ccccc1` [Example 1.9, N-Benzyl-2-(4-(benzyloxy)-2-oxopyridin-1(2H)-yl)-1,4-dimethyl-1H-imidazole-5-carboxamide] was 232 to 233 °C.
`Cc1nc(-n2ccc(-c3ccc(Cl)cc3)cc2=O)sc1C(=O)NCc1ccccc1` [Example 10, N-Benzyl-2-(4-(4-chlorophenyl)-2-oxopyridin-1(2H)-yl)-4-methylthiazole-5-carboxamide] displayed a melting point of 265 to 267 °C.
As for `COc1ccn(-c2nc(C)c(C(=O)NCc3ccc(F)c(F)c3)s2)c(=O)c1` [Example 9.11, N-(3,4-Difluorobenzyl)-2-(4-methoxy-2-oxopyridin-1(2H)-yl)-4-methylthiazole-5-carboxamide], the melting point lay in the range of 183 to 185 °C.
For `Cc1nc(-n2ccc(O)cc2=O)sc1C(=O)NCc1cccnc1` [Example 7.10, 2-(4-Hydroxy-2-oxopyridin-1(2H)-yl)-4-methyl-N-(pyridin-3-ylmethyl)thiazole-5-carboxamide], the melting point lay in the range of 238 to 240 °C.
As to `Cc1nc(-n2cc(OCc3ccccc3)ccc2=O)sc1C(=O)NCc1ccccc1` [Example 3.2, N-Benzyl-2-(5-(benzyloxy)-2-oxopyridin-1(2H)-yl)-4-methylthiazole-5-carboxamide], the melting point lay in the range of 166 to 167 °C.
Regarding `CCNC(=O)c1sc(-n2ccc(OCc3ccccc3)cc2=O)cc1C` [Example 3.23, 5-(4-(Benzyloxy)-2-oxopyridin-1(2H)-yl)-N-ethyl-3-methylthiophene-2-carboxamide], the melting point was 158 to 160 °C.
`Cc1cc(-n2ccc(OCCCO)cc2=O)sc1C(=O)NCc1cccc(F)c1` [Example 25, N-(3-Fluorobenzyl)-5-(4-(3-hydroxypropoxy)-2-oxopyridin-1(2H)-yl)-3-methylthiophene-2-carboxamide] showed a melting point of 135 to 137 °C.
The value for `Cc1nc(-n2ccc(OCc3cccnc3)cc2=O)sc1C(=O)NCc1ccccc1` [Example 6, N-Benzyl-4-methyl-2-(2-oxo-4-(pyridin-3-ylmethoxy)pyridin-1(2H)-yl)thiazole-5-carboxamide] was 214 to 216 °C; that for `Cc1nc(-n2ccc(OCc3ccc(C(F)(F)F)o3)cc2=O)sc1C(=O)NCc1cccnc1` [Example 1.12, 4-Methyl-2-(2-oxo-4-((5-(trifluoromethyl)furan-2-yl)methoxy)pyridin-1(2H)-yl)-N-(pyridin-3-ylmethyl)thiazole-5-carboxamide] was 240 to 242 °C; that for `CCOC(=O)c1sc(-n2ccc(OC)cc2=O)nc1C` [Example 15.1, Ethyl 2-(4-Methoxy-2-oxopyridin-1(2H)-yl)-4-methylthiazole-5-carboxylate] was 163 to 165 °C.
On to `O=C(NCc1ccccc1)c1csc(-n2ccc(OCc3ccccc3)cc2=O)c1` [Example 8, N-Benzyl-5-(4-(benzyloxy)-2-oxopyridin-1(2H)-yl)thiophene-3-carboxamide], for which the melting point lay in the range of 162 to 163 °C.
With `Cc1nc(-n2ccc(O)cc2=O)sc1C(=O)NCc1ccc(F)cc1` [Example 1.6, N-(4-Fluorobenzyl)-2-(4-hydroxy-2-oxopyridin-1(2H)-yl)-4-methylthiazole-5-carboxamide], the melting point lay within 280 to 282 °C.
In turn, `Cc1nc(-n2ccc(OCc3ccc(F)cc3)cc2=O)sc1C(=O)NCc1ccccc1` [Example 1.24, N-Benzyl-2-(4-(4-fluorobenzyloxy)-2-oxopyridin-1(2H)-yl)-4-methylthiazole-5-carboxamide] came in with a melting point of 243 to 245 °C.
Consider `Cc1cc(-n2ccc(OCc3ccccc3)cc2=O)sc1C(=O)NCc1cccnc1` [Example 1.23, 5-(4-(Benzyloxy)-2-oxopyridin-1(2H)-yl)-3-methyl-N-(pyridin-3-ylmethyl)thiophene-2-carboxamide], for which the melting point is 165 to 167 °C.
Compound `Cc1nc(-n2ccccc2=O)sc1C(=O)NCc1ccccc1` [Example 3.10, N-Benzyl-4-methyl-2-(2-oxopyridin-1(2H)-yl)thiazole-5-carboxamide] came in with a melting point of 180 to 182 °C.
Consider `Cc1nc(-n2cc(C(=O)Nc3ccccc3)ccc2=O)sc1C(=O)NCc1ccccc1` [Example 3.15, N-Benzyl-4-methyl-2-(2-oxo-5-(phenylcarbamoyl)pyridin-1(2H)-yl)thiazole-5-carboxamide], for which the melting point fell in the range of 223 to 225 °C.
As for `Cc1nc(-n2ccc(NC(=O)c3ccccc3)cc2=O)sc1C(=O)NCc1ccccc1` [Example 4, 2-(4-Benzamido-2-oxopyridin-1(2H)-yl)-N-benzyl-4-methylthiazole-5-carboxamide], the melting point fell in the range of 246 to 248 °C.
For the compound `Cc1nc(-n2cc(C(F)(F)F)ccc2=O)sc1C(=O)NCc1ccccc1` [Example 3.4, N-Benzyl-4-methyl-2-(2-oxo-5-(trifluoromethyl)pyridin-1(2H)-yl)thiazole-5-carboxamide], the melting point lay within 148 to 149 °C.
As for `Cc1nc(-n2ccc(OCC3CCCO3)cc2=O)sc1C(=O)NCc1ccccc1` (stereo not drawn) [Example 9.12, N-Benzyl-4-methyl-2-(2-oxo-4-((tetrahydrofuran-2-yl)methoxy)pyridin-1(2H)-yl)thiazole-5-carboxamide], the melting point was in the range of 181 to 183 °C.
As for `Cc1cc(-n2ccc(OCc3ccc(F)cc3)cc2=O)sc1C(=O)NCc1ccccc1` [Example 9.2, N-Benzyl-5-(4-(4-fluorobenzyloxy)-2-oxopyridin-1(2H)-yl)-3-methylthiophene-2-carboxamide], the melting point lay within 195 to 197 °C.
The value for `Cc1nc(-n2ccc3c(OCc4ccccc4)cccc3c2=O)sc1C(=O)NCc1ccccc1` [Example 3.8, N-Benzyl-2-(5-(benzyloxy)-1-oxoisoquinolin-2(1H)-yl)-4-methylthiazole-5-carboxamide] was 225 to 226 °C; that for `Cc1cc(-n2ccc(OCCc3ccccc3)cc2=O)sc1C(=O)NCc1ccccc1` [Example 9.4, N-Benzyl-3-methyl-5-(2-oxo-4-phenethoxypyridin-1(2H)-yl)thiophene-2-carboxamide] was 159 to 160 °C.
`Cc1nc(-n2ccc(O)cc2=O)sc1C(=O)NCCC1CC1` [Example 1.17, N-(2-Cyclopropylethyl)-2-(4-hydroxy-2-oxopyridin-1(2H)-yl)-4-methylthiazole-5-carboxamide] came in with a melting point of 234 to 236 °C.
The compound `CCOC(=O)c1sc(-n2ccc(O)cc2=O)nc1C` [Example 14, Ethyl 2-(4-Hydroxy-2-oxopyridin-1(2H)-yl)-4-methylthiazole-5-carboxylate] had a melting point of 270 to 273 °C.
